Reference: ChEMBL document CHEMBL1201862, “PubChem BioAssay data set” (2004)
Activity calls are given as the source filed them. For most assays here, no stated cut-off is given here; in the data, actives have a measured EC50 and inactives only a lower limit.

How the values were obtained:
H9c2 = assay: cells; type: functional, cell-based; details: Rattus norvegicus, H9c2, Myocardium;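 further: confirmatory concentration-response retest of ultra-high-throughput screening hits for modulation of myocardial damage; cell death induced by hydrogen peroxide oxidative stress; compound pretreatment for 60 min then peroxide exposure for 2 h; potency is for protecting the cells against peroxide damage rather than for killing them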
[1] = target: T1, Corticotropin-releasing factor receptor 2/Corticotropin-releasing factor-binding protein (Homo sapiens, UniProt P24387+Q13324); assay: Dose Response confirmation of uHTS hits for small molecule antagonists of the CRF-binding protein and CRF-R2 receptor complex.; type: functional; details: read-out: IC50_Mean
T1 sequence (Q13324 whole entry): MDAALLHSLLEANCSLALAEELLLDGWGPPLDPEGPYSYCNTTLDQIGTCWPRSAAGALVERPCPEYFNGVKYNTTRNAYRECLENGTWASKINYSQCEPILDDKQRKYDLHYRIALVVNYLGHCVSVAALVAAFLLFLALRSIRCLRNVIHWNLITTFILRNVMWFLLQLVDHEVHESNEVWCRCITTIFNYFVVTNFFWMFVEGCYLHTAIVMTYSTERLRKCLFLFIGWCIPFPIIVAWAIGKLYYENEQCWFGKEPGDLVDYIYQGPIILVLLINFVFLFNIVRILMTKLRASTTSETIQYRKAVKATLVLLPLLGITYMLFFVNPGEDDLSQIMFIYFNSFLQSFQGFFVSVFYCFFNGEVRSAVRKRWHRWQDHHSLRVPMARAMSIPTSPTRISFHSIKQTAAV
T1 sequence (P24387 whole entry): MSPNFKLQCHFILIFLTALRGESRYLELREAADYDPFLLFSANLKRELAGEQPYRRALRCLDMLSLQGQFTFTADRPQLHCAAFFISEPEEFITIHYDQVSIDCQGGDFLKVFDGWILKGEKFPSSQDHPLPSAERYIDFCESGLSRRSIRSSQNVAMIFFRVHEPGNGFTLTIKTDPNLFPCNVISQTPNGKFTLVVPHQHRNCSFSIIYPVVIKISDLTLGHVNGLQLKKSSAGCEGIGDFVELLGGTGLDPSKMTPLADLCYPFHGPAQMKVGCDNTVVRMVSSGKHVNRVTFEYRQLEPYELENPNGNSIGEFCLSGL

[2] = target: T1, Corticotropin-releasing factor receptor 2/Corticotropin-releasing factor-binding protein; assay: activators of CRF receptor 2 with binding protein – uHTS hits, confirmation (AID 602473); type: functional; details: read-out: EC50_Mean
Cytochrome P450 2C9 = Cytochrome P450 2C9 (Homo sapiens, UniProt P11712)
[3] = Luminescence Cell-Based Dose Confirmation HTS to Identify Activators of 5'UTR Stem-Loop Driven Alpha-Synuclein mRNA Translation in H4 Neuroglioblastoma Cells. [Related pubchem assays: 1829 (Project Summary), 1814 (Primary HTS)]; type: functional
[4] = Luminescence Cell-Based Dose Response HTS to Identify Activators of Luciferase Translation or Activity in H4 […] Cells. [Related pubchem assays: 1829 (Project Summary), 1814 (Primary HTS)]; type: functional
H4 = assay: Luminescence Cell-Based Dose Response HTS to Identify Activators of 5'UTR Stem-Loop Driven Prion Protein mRNA Translation in H4 Neuroglioblastoma Cells. [Related pubchem assays: 1829 (Project Summary), 1814 (Primary HTS)]; type: functional; details: Homo sapiens
[5] = target: T2, Ubiquitin-conjugating enzyme E2 N (Homo sapiens, UniProt P61088); type: functional;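 further: Dose-response confirmation in a TR-FRET assay detecting UBC13-driven polyubiquitin chain formation, inhibition measured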
T2 sequence (P61088 whole entry): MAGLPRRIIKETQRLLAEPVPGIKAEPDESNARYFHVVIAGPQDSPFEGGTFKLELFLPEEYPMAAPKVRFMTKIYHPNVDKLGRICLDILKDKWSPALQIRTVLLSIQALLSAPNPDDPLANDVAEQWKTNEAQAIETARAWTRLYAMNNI

[6] = tested on: Streptococcus sp. 'group A'; assay: Streptococcus pyogenes SK(-)GAS viability under kanamycin – luminescence, BacTiterGlo, confirmation, counter-screen for streptokinase expression inhibitor project, dose response (AID 1900); type: functional, organism-based
Streptokinase A = target: T3, Streptokinase A (Streptococcus pyogenes serotype M1, UniProt P10520); assay: viability-normalized secreted streptokinase activity reduction – plasminogen activation absorbance, OD405, dose response (AID 1914); type: functional, Streptococcus pyogenes M1 GAS;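 further: secreted streptokinase activity via plasminogen activation per viability signal from cell pellet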
T3 sequence (P10520 whole entry): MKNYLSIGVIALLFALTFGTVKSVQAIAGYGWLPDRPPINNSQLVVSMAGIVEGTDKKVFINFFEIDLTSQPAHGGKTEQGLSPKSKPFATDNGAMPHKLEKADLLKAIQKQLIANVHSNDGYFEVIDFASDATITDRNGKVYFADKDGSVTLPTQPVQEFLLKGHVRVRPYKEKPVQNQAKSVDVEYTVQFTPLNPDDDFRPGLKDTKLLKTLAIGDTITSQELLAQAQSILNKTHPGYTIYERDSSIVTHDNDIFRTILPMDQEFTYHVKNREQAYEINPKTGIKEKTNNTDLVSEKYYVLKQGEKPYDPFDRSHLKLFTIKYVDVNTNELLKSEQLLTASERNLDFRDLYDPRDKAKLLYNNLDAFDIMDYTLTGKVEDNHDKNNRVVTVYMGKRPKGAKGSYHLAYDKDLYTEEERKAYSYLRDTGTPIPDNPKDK

Streptococcus = assay: GAS UMAA2166 growth inhibition – luminescence, BacTiterGlo, counter-screen for streptokinase expression inhibitor project, dose response (AID 1915); type: functional, organism-based;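 further: potency for reduction of bacterial viability or growth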
[7] = viability of uninfected HEp-2 cells – cell-based, HTS, cytotoxicity control for RSV inhibitor project, dose response (AID 2410); type: functional; details: human respiratory syncytial virus
[8] = target: T4, Heat shock factor protein 1 (Mus musculus, UniProt P38532); assay: decrease of HSF1-responsive luciferase luminescence – cell-based, NIH3T3, dose retest, confirmation (AID 2382); type: functional;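 further: NIH3T3 fibroblasts with HSF1-driven luciferase reporter stressed by proteasome inhibitor MG132; luminescence from HSF1-driven luciferase expression after 8 hours of MG132 stress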
T4 sequence (P38532 whole entry): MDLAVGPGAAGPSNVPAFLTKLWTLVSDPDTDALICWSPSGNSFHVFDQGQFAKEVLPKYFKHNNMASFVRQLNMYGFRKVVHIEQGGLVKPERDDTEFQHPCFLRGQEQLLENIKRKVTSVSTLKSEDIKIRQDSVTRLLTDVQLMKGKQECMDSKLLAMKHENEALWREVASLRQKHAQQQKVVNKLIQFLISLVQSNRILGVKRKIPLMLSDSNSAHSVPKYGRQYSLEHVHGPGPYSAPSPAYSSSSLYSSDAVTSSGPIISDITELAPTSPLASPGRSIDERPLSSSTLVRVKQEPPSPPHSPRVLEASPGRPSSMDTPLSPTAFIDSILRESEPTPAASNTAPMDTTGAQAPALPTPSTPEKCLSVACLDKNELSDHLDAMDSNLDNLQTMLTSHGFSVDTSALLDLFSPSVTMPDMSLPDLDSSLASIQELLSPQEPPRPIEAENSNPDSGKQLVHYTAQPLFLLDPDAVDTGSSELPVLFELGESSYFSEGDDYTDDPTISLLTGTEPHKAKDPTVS

INS1 = assay: INS-1E survival protection against cytokine death – cell-based, luminescence, retest, dose response (AID 449756); type: functional; details: Rattus norvegicus;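 further: cell death triggered by IL-1 beta plus TNF-alpha plus IFN-gamma mixture; protective hits raise ATP signal compared with cytokine alone wells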
[9] = NIH-3T3 fibroblast cytotoxicity, dose response, cytotoxicity control, cell-based, fluorescence, Alamar Blue, secondary assay (AID 2327); type: functional;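 further: NIH-3T3 mouse fibroblasts cultured with fluconazole at 8 µg/mL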
[10] = fluconazole-exposed Candida albicans growth modulators – fluorescence, retest, confirmation (AID 2467); type: functional, cell-based
[11] = Trypanosoma cruzi growth suppression in host cells – NIH3T3 host cells, beta-gal luminescence, confirmation (AID 2044); type: functional, cell-based;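 further: intracellular parasites grown in NIH/3T3 mouse fibroblasts as host cells; luminescent beta-galactosidase reporter signal from transgenic T. cruzi replicating inside host cells; inhibitors lower the luminescence signal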
[12] = NIH3T3 cell viability loss – ATP luminescence, mouse fibroblasts, counter-screen, dose response (AID 2010); type: functional, cell-based;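 further: cells exposed to compound for about 90 hours before reading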

Sequence of Cytochrome P450 2C9 (P11712 whole entry): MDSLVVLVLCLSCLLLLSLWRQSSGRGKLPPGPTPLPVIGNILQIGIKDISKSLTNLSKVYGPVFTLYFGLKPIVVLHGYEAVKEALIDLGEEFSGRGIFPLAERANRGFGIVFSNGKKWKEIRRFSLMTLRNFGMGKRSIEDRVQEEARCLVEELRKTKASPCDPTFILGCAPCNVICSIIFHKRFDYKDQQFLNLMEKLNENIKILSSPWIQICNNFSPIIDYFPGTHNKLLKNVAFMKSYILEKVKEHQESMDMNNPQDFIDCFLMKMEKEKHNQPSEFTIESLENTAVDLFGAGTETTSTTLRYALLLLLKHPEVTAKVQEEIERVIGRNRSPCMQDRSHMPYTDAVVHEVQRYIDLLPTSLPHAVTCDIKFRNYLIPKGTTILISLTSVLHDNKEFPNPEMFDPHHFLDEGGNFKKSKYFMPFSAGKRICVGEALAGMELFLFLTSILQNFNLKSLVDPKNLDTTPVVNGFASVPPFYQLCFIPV

With COc1cc(-c2cc(NC(C)=O)c3ncc(-c4ccc(C(C)=O)cc4)n3c2)cc(OC)c1OC the IC50 (H9c2) was > 79 µM (inactive).
With CC(=O)/N=c1/sc(S(N)(=O)=O)nn1C [METHAZOLAMIDE] the IC50 [1] was > 47.1 µM (inactive), the EC50 [2] was > 53 µM (inactive) and the AC50 (Cytochrome P450 2C9) was 12.6 µM (inconclusive).
With c1ccc2oc(C3=NN=C(NC4CC4)SC3)cc2c1 the EC50 [3] was > 120 µM (not active), the EC50 [4] was > 120 µM (not active) and the EC50 (H4) was > 120 µM (not active).
In the case of O=C(CSc1nnc(-c2cccnc2)o1)c1cc2ccccc2oc1=O, the IC50 (H9c2) is reported as > 79 µM (inactive).
For O=C(O)c1nn(CCOc2ccccc2F)c(=O)c2ccccc12, the IC50 (H9c2) was > 79 µM (inactive).
With COc1ccc(/N=C/C=C2\C=C(c3ccccc3)OC(C)(C)O2)cc1 the EC50 [3] was > 120 µM (not active), the EC50 [4] was 10.2 µM (active) and the EC50 (H4) was > 120 µM (not active).
For CCc1nnc(NC(=O)c2ccc(-c3ccccc3Cl)o2)s1, the EC50 [3] was > 120 µM (not active), the EC50 [4] was 6.73 µM (active) and the EC50 (H4) was 18.9 µM (active).
In the case of COc1cccc(CNc2nc(-c3cccnc3)nc3ccccc23)c1, the IC50 [5] is reported as > 20 µM (inactive), the IC50 [1] is reported as > 47.1 µM (inactive) and the EC50 [2] is reported as > 53 µM (inactive).
For Cc1nc(SCC(=O)c2cccs2)c2oc3ccccc3c2n1, the EC50 [3] was 21.5 µM (active), the EC50 [4] was 16 µM (active) and the EC50 [6] was 21.2 µM (active). For the same molecule, the EC50 (H4) was 68 µM (active), the EC50 (Streptokinase A) was > 150 µM (not active) and the EC50 (Streptococcus) was 20.1 µM (active).
For COc1ccc(C(CCN2CCCC(C)C2)c2c(OC)cc(OC)c3c(-c4ccccc4)cc(=O)oc23)cc1 (stereo not given), the IC50 [5] was > 20 µM (inactive).
In the case of COCCNC(=O)CSC1=N/C(=C/c2ccc(Cl)c(Cl)c2)C(=O)N1c1ccccc1F, the CC50 [7] is reported as 47.8 µM (active), the EC50 [8] is reported as 20 µM (active) and the AC50 (INS1) is reported as 8.64 µM (active).
For CC(=O)Nc1cccc(-c2cc(NC(C)=O)c3ncc(-c4ccccc4)n3c2)c1, the IC50 (H9c2) was > 79 µM (inactive).
With CC(C)N1CCc2c(sc(NC(=O)c3ccc(S(=O)(=O)N4CCc5ccccc54)cc3)c2C(N)=O)C1 the IC50 [5] was > 20 µM (inactive).
In the case of OC1(C(F)(F)F)CC(O)(C(F)(F)F)n2nc(-c3ccccc3)cc2N1 (stereo not given), the EC50 [3] is reported as > 120 µM (not active), the EC50 [4] is reported as > 120 µM (not active) and the EC50 (H4) is reported as 11 µM (active).
In the case of Cc1ccc(C)c(N2CCN(C(=O)CCCOc3cc(=O)n(C)c4ccccc34)CC2)c1, the AC50 (INS1) is reported as 2.78 µM (active).
For CC(C)=CCc1cc2c(=O)c3c(O)c4c(cc3oc2c(O)c1O)OC(C)C4(C)C (stereo not given) [GERONTOXANTHONE G], the EC50 [9] was > 160 µM (inactive), the EC50 [10] was > 38 µM (not active) and the EC50 [11] was 2.64 µM (active). The EC50 [12] was 6.31 µM (active) and the AC50 (INS1) was 5.18 µM (active).
For C[C@H](CO)N1C[C@H](C)[C@@H](CN(C)S(=O)(=O)c2ccccc2)Oc2ccc(NC(=O)Nc3ccccc3)cc2C1=O, the IC50 (H9c2) was 13.3 µM (active).
